Here are results for 16 compounds from US20240131001A1, “PHARMACEUTICAL APPLICATION OF FUSED RING PHENOLIC COMPOUNDS” (RISEN (SUZHOU) PHARMA TECH CO. LTD., priority 2020, published 2024).

In one series the test system is PPK. The experiment in a line: PPK inhibitor screening assay (Table 1, PPK isoform not given). It is filed as biochemical, Pseudomonas aeruginosa. As to conditions: PPK isoform not stated; for IC50: read-out: IC50 Values for PPK Inhibition. The source says:
(§1) In order to evaluate the inhibitory effect of the compounds on PPKs, the PPK1, PPK2A, PPK2B and PPK2C were used respectively to test the above compounds using a kit described in an article (Liang Peng et al. & Ning Sun (2020) Discovery and antibacterial study of potential PPK1 inhibitors against uropathogenic E. coli, Journal of Enzyme Inhibition and Medicinal Chemistry, 35:1, 1224-1232).

The next series addresses PPK2B (Pseudomonas aeruginosa, UniProt Q9I154). In words: PPK inhibitor screening assay, PPK2B. It is filed as biochemical.
Text: as §1

For the next series, the target named is PPK1 (Pseudomonas aeruginosa, UniProt P0DP44). In words: PPK inhibitor screening assay, PPK1. It is filed as biochemical.
Chain of PPK1 (P0DP44 whole entry): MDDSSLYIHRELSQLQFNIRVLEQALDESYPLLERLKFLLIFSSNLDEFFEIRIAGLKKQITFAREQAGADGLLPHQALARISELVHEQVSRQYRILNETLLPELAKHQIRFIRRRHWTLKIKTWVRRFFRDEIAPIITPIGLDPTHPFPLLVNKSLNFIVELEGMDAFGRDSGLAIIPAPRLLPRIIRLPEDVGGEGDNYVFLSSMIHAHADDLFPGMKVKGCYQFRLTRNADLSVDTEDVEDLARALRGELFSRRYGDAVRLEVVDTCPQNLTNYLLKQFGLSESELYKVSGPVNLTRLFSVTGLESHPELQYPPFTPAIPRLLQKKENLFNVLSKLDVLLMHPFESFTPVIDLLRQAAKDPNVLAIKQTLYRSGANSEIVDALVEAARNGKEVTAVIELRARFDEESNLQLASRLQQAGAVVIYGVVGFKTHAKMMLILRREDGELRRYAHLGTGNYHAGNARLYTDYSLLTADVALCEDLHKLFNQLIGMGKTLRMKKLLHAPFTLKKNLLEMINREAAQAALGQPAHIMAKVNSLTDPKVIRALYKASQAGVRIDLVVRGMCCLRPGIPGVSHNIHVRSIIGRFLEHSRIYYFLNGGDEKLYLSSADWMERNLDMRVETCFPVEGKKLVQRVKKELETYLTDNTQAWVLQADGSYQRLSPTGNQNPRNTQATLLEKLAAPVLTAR
Text: as §1

The target of the next series is PPK2A (Pseudomonas aeruginosa, UniProt Q9I6Z1). The experiment in a line: PPK inhibitor screening assay, PPK2A. It is filed as biochemical.
Chain of PPK2A (Q9I6Z1 whole entry): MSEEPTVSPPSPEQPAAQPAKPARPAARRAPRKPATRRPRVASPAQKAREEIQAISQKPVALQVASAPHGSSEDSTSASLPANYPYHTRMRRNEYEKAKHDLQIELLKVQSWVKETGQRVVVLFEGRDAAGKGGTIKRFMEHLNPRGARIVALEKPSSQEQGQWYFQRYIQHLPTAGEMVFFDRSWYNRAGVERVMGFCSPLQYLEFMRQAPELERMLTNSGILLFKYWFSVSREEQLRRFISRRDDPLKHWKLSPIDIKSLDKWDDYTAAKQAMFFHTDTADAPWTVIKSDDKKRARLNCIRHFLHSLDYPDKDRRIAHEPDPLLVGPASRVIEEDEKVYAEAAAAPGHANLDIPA
Text: as §1

The target in the next series is PPK2C (Pseudomonas aeruginosa, UniProt Q9HYF1). In words: PPK inhibitor screening assay, PPK2C. It is filed as biochemical.
Chain of PPK2C (Q9HYF1 whole entry): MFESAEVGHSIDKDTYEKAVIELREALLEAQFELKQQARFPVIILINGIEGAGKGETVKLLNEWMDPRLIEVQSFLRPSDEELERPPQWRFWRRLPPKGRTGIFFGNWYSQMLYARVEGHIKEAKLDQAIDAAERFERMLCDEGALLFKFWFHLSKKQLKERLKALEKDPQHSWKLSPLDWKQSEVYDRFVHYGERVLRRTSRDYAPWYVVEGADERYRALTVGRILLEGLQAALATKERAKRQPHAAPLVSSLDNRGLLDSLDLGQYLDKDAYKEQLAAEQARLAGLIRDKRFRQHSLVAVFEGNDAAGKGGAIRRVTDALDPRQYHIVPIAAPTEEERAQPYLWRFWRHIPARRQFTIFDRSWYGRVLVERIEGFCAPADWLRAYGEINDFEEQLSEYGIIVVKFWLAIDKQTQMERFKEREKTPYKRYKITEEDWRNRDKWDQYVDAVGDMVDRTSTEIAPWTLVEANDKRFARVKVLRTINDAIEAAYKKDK
Text: as §1

Series [1] relates to Pseudomonas aeruginosa. The experiment in a line: Nematode survival test. As to conditions: Caenorhabditis elegans infected with wild-type Pseudomonas aeruginosa, six days. It is filed as in vivo. The source says:
FIG. 3: Effect of Compound 4 on the Survival Rate of Nematodes Infected with Pseudomonas Aeruginosa.
Caenorhabditis elegans were divided into five groups A, B, C, D, E, and then subjected to modeling respectively. Caenorhabditis elegans in group A and B were infected with wild-type (WT) Pseudomonas aeruginosa. Group A served as the DMSO control group and group B as compound 4 treatment group. Caenorhabditis elegans in groups C and D were infected with Pseudomonas aeruginosa which was knocked out of all PPK (ΔpolyP, Δppk1Δppk2ΔAppk2BΔ ppk 2C), where group C was DMSO control group and group D served as compound 4 treatment group; and group E was infected with Escherichia coli (0P50E. Coli). After modeling, Caenorhabditis elegans in groups A and C were continuously treated with DMSO, and those in groups B, D and E were continuously treated with compound 4. The environment and conditions were consistent across the five groups. Six days later, the survival rate of nematodes in five groups was calculated.

Series [2] deals with human embryonic kidney cells (HEK239T). The experiment in a line: HEK cytotoxicity test (Trypan blue staining cell viability assay). It is filed as cell-based. As to conditions: for relative viability rate: 100 μM, relative to DMSO; for cytotoxicity: up to 100 μM. As to the method: FIG. 4: Toxicity Assay of Compound 4 and Compound B on Human Embryonic Kidney Cells (HEK Cells): Relative Viability in the Presence of DMSO (Control), Compound B (100 μM), and Compound 4 (100 μM).
The cytotoxicity of the compounds was assessed in cultured human embryonic kidney cells (HEK239T) using the Trypan blue staining cell viability assay. The blank solvent DMSO, compound B, and compound 4 were tested, respectively.

Series [3] concerns Pseudomonas aeruginosa. In words: Biofilm testing. It is filed as cell-based. As to conditions: 100 μM compound. As to the method: FIG. 2: Effect of Compound 4 on Biofilm Formation in Different Pseudomonas Aeruginosa Strains. A: absorbance. The experimental concentration of compound 4 was 100 μM, and “−” or “+” indicates the absence or presence of compound 4; WT: wild-type strain; Δ ppk 1 is the PPK1 knocked out strain; Δ ppk2A, Δppk2B and Δppk2C are the strains with PPK2A, PPK2B, PPK2C knocked out; Δppk1, Δppk2AΔppk2B, Δppk2C are the strains with PPK1, PPK2A, PPK2B and PPK2C knocked out.
Pseudomonas aeruginosa can form biofilm in culture medium. Four groups of LB liquid media were set respectively, among them, group A was inoculated with wild-type Pseudomonas aeruginosa (WT); group B was inoculated with PPK1 knocked out Pseudomonas aeruginosa (A ppkl); group C was inoculated with PPK2A, PPK2B and PPK2C knocked out Pseudomonas aeruginosa (Δ ppk 2A, Δ ppk 2B, Δ ppk 2C); group D was inoculated with PPK1 and PPK2A, PPK2B and PPK2C knocked out Pseudomonas aeruginosa (Δ ppk1, Δ ppk 2Δ A ppk 2B, Δ ppk 2C). After the four groups were infected with Pseudomonas aeruginosa, each group was further divided into two groups, with one group added with DMSO (−) as the control, the other group added with 100 μm compound 4 (+). […] And this biofilm formed in the culture medium of groups A, B, C and D was analyzed using 570 nm visible light.

Like-named read-outs stand apart in the source and are kept apart here.

Chain of PPK2B (Q9I154 whole entry): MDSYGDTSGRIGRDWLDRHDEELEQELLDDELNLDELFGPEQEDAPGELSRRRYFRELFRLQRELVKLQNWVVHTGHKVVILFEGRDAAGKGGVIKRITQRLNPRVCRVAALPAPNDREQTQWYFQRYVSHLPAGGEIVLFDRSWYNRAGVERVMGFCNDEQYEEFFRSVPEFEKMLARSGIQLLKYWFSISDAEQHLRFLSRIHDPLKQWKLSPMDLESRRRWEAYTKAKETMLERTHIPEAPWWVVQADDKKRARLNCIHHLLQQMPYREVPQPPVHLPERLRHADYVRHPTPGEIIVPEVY

As usually defined, the IC50 is the concentration needed to halve the response being measured. Take `O=c1oc2cc(O)ccc2c2ccc(O)c(O)c12` [C, reference compound]: the IC50 with PPK was above 100 µM.
The same measure, in the same setting: under `O=c1cc(-c2cc(O)c(O)c(O)c2Br)oc2c(O)c(O)ccc12` [Compound 1] stands 6 µM.
Regarding `O=c1oc2c(O)c(O)c(O)c3c(=O)oc4c(O)c(O)cc1c4c23` [Compound 2], the IC50 stood at 59 µM against PPK2B, 8 µM in the series with PPK and 20 µM on PPK1 (read-out: IC50 PPK1).
Take `O=c1oc2c(O)c(O)cc3c(=O)oc4c(O)c(O)cc1c4c23` [Compound 3]: the IC50 on PPK2B was determined as 48 µM; in the series with PPK, 9 µM; on PPK1 (read-out: IC50 PPK1) it was 20 µM; against PPK2A, 50 µM.
`O=C1OC2(c3ccccc31)c1ccc(O)c(O)c1Oc1c2ccc(O)c1O` [Compound 4]: the IC50 on PPK2C was 165 µM; against PPK2B, 20 µM; in the series with PPK, 17 µM; at PPK1 (read-out: IC50 PPK1) it was 17 µM; against PPK2A, 16 µM. Further, the mortality of nematodes entry with Pseudomonas aeruginosa [1] is “significantly reduced”. Moreover, the relative viability rate in series [2] was around 100%. Moreover, the cytotoxicity result in series [2] is “no cytotoxicity”. The “inhibitory effect on PPK1 and PPK2 seen in biofilm test” value with Pseudomonas aeruginosa [3] (PPK knocked out strains) is recorded as “not only inhibited PPK1, but also exhibited a good inhibitory effect on PPK2”. In addition, the “biofilm formation (570 nm absorbance)” value with Pseudomonas aeruginosa [3] (wild-type Pseudomonas aeruginosa, 37° C., 24 h) is “could reduce the formation of biofilm”.
As for `O=S1(=O)OC2(c3ccccc31)c1ccc(O)c(O)c1Oc1c2ccc(O)c1O` [Compound 5], the 50% inhibitory concentration (IC50) was determined as 273 µM on PPK2C; 31 µM at PPK2B; 26.3 µM with PPK; 26 µM on PPK1 (read-out: IC50 PPK1); 24 µM against PPK2A.
For `O=S1(=O)OC2(c3ccccc31)c1cc(Br)c(O)c(O)c1Oc1c2cc(Br)c(O)c1O` [Compound 6], the IC50 with PPK is 7.59 µM.
In the case of `O=c1c(O)c(-c2cc(O)c(O)c(O)c2)oc2cc(O)cc(O)c12` [Compound 7], the IC50 in the series with PPK amounted to 39 µM.
Same read-out and setting: the result for `O=c1cc(-c2cc(O)c(O)c(O)c2-c2ccsc2)oc2c(O)c(O)ccc12` [Compound 10] reads 36 µM.
On to `O=c1c(O)c(-c2ccc(O)cc2O)oc2cc(O)cc(O)c12` [Compound A, reference compound], for which the “IC50 Values for PPK Inhibition” value in the series on PPK is on record as “Inactive”.
For `O=c1oc2c(O)c(O)ccc2c2ccc(O)c(O)c12` [Compound B, reference compound], in the series on PPK, the IC50 was 150 µM. Half-maximal inhibition at PPK1 (IC50) required 120 µM. In series [2], the relative viability rate entry is recorded as “approximately 35%” and the cytotoxicity entry is “caused a large number of cell death”.
For the compound `Cc1c(C2(c3cc(Br)c(O)c(Br)c3C)OS(=O)(=O)c3ccccc32)cc(Br)c(O)c1Br` [Compound F, reference compound], the “IC50 Values for PPK Inhibition” value in the series on PPK is “Inactive”.
Regarding `O=c1c(O)c(-c2ccc(O)c(O)c2)oc2cc(O)cc(O)c12` [Compound G, reference compound], the IC50 with PPK was 177 µM.
On to `C[C@@H]1O[C@@H](OC[C@H]2O[C@@H](Oc3c(-c4ccc(O)c(O)c4)oc4cc(O)cc(O)c4c3=O)[C@H](O)[C@@H](O)[C@@H]2O)[C@H](O)[C@H](O)[C@H]1O` [Compound H, reference compound], for which the “IC50 Values for PPK Inhibition” value in the series on PPK is “Inactive”.
Regarding `O=C1OC2(c3ccc(O)cc3Oc3cc(O)ccc32)c2ccccc21` [D, reference compound], the IC50 in the series on PPK was above 200 µM.
Still for that read-out and setting: the result for `O=C(O)c1ccc2c(c1)C1(OC2=O)c2ccc(O)cc2Oc2cc(O)ccc21` [E, reference compound] reads above 200 µM.
